Patent US20250195513A1, “DEGRADATION OF IRAK4 BY CONJUGATION OF IRAK4 INHIBITORS WITH E3 LIGASE LIGAND AND METHODS OF USE” (BeiGene, Ltd., priority 2022, published 2025)

Experiments:
IRAK4 [1] = molecular target: T1, IRAK4 (Homo sapiens, UniProt Q9NWZ3); test: IRAK4 Degradation Assay (Karpas299, HTRF/TR-FRET); format: cell-based; details: Karpas-299 cells; for Dmax / IRAK4 in Karpas-299 (24 h) Dmax (%): maximum percentage of degradation
T1 construct: endogenous in cells; host or cells: Karpas299
T1 sequence (Q9NWZ3 1-460): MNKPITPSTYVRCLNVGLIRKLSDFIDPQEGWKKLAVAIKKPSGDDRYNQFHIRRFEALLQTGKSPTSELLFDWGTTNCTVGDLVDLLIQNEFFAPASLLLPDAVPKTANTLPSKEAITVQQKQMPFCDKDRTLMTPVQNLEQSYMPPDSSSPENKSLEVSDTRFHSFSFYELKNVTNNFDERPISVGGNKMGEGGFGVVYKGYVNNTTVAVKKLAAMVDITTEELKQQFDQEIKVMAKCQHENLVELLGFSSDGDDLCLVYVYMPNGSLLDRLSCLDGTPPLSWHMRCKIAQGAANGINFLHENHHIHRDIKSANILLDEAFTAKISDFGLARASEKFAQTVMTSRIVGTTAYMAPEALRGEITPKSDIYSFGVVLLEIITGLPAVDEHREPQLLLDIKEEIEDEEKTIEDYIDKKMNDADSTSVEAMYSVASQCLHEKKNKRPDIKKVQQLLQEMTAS
Outline: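 Karpas299 cells at 0.2 million per well were exposed to serially diluted compounds for 24 h or 5 h, then lysed. IRAK4 remaining in lysates was quantified by HTRF (665/620 nm) after overnight antibody incubation at room temperature. Percent degradation was fitted to a four-parameter curve to give IC50 (DC50).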

IRAK4 [2] = molecular target: T1, IRAK4; test: IRAK4 Degradation Assay with Human Serum (Karpas299, HTRF/TR-FRET); format: cell-based; details: Karpas-299 in human serum, 24 hrs treatment; for DC50: read-out: IRAK4 degradtion with human serum assay DC50; for Dmax: read-out: IRAK4 degradtion with human serum assay Dmax (%)
Protocol: IRAK4 degradation was measured using a TR-FRET-based method (Degorce, François, et al. Current chemical genomics. 2009, 3: 22). Karpas299 resuspended in Human serum AB (GEMINI, 100-512) were seeded into 96-well plates at the density of 0.2 million cells per well and then treated with a series dilution of compounds. After 24 hrs treatment, cells were pelleted via centrifugation and washed with PBS, add 40 μL lysis buffer (Cisbio) to each well after removal of the supernatant. Plates were then incubated at room temperature with shaking for 30 minutes. A total of 16 μL of cell lysates from each well of a 96-well plate was transferred to a 384-well white assay plate. IRAK4 level was quantitated using the HTRF kit as described by the manufacturer manual (Cisbio). FRET signals were measured using a PHERAstar FSX reader (BMG Labtech).
After treatment, add HTRF lysis buffer to each well; seal the plate and incubate 1 hour at room temperature on a plate shaker; Once the cells are lysed, 16 μL of cell lysate are transferred to a PE 384-well HTRF detection plate; 4 μL of pre-mixed HTRF antibodies are added to each well; Cover the plate with a plate sealer, spin 1000 rpm for 1 min, Incubate overnight at room temperature; Read on BMG PheraStar with HTRF protocol (337 nm-665 nm-620 nm).
The inhibition (degradation) percentage of the compound was calculated by the following equation: […]
The IC50 (DC50) value of a compound can be obtained by fitting the following equation
Wherein, X and Y are known values, and IC50, Hillslope, Top and Bottom are the parameters obtained by fitting with software. Y is the inhibition percentage (calculated from the equation), X is the concentration of the compound; IC50 is the concentration of the compound when the […] is reached. The smaller the IC50 value is, the stronger the inhibitory ability of the compound is. Vice versa, the higher the IC50 value is, the weaker the ability the inhibitory ability of the compound is; Hillslope represents the slope of the fitted curve, generally around 1 *; Bottom represents the minimum value of the curve obtained by data fitting, which is generally 0%±20%; Top represents the maximum value of the curve obtained by data fitting, which is generally 100%±20%. The experimental data were fitted by calculating and analyzing with Dotmatics data analysis software.

[3] = 24 h treatment, read-out: IRAK4 in Karpas-299 (24 h) Dmax (%)
[4] = 24 h treatment, read-out: IRAK4 in Karpas-299 (24 h) DC50

Row | Structure (SMILES) | Dmax (IRAK4 [1]; [3]) [%] | DC50 (IRAK4 [1]; [4]) [nM] | DC50 (IRAK4 [2]) [nM] | Dmax (IRAK4 [2]) [%] | Dmax (IRAK4 [1]; 5 h treatment, read-out: IRAK4 in Karpas-299 (5 h) Dmax (%)) [%] | DC50 (IRAK4 [1]; 5 h treatment, read-out: IRAK4 in Karpas-299 (5 h) DC50) [nM] | IRAK4 in Karpas-299 (24 h) Dmax (%) (IRAK4 [1]; 24 h treatment) | IRAK4 degradtion with human serum assay Dmax (%) (IRAK4 [2])
1 | CC(C)(O)c1cc2nn([C@H]3CC[C@H](N4CCN(C5CCN(c6ccc7c(c6)C(=O)N(C6CCC(=O)NC6=O)C7=O)CC5)CC4)CC3)cc2cc1NC(=O)c1ccc2cc(C#N)cnn12 (some centres unmarked) [Example 430, 3-cyano-N-(2-((1r,4r)-4-(4-(1-(2-(2,6-dioxopiperidin-3-yl)-1,3-dioxoisoindolin-5-yl)piperidin-4-yl)piperazin-1-yl)cyclohexyl)-6-(2-hydroxypropan-2-yl)-2H-indazol-5-yl)pyrrolo[1,2-b]pyridazine 7-carboxamide] | 97 | 1.4 | 15 | 98 | – | – | – | –
2 | Cc1cc(C2CCC(=O)NC2=O)c(F)cc1[C@H]1C[C@@H](N2CCN([C@H]3CC[C@H](n4cc5cc(NC(=O)c6ccc7cc(C#N)cnn67)c(C(C)(C)O)cc5n4)CC3)CC2)C1 (stereo partly drawn) [Example 296, 3-cyano-N-(2-((1R,4r)-4-(4-((1s,3S)-3-(4-(2,6-dioxopiperidin-3-yl)-5-fluoro-2-methylphenyl)cyclobutyl)piperazin-1-yl)cyclohexyl)-6-(2-hydroxypropan-2-yl)-2H-indazol-5-yl)pyrrolo[1,2-b]pyridazine-7-carboxamide] | 97 | 1.8 | 18 | 100 | 91 | 5.4 | – | –
3 | Cc1cc(N2CCC(N3CCN([C@H]4CC[C@H](n5cc6cc(NC(=O)c7ccc8cc(C#N)cnn78)c(C(C)(C)O)cc6n5)CC4)CC3)CC2)cc(C)c1[C@H]1CCC(=O)NC1=O [Example 289, 3-cyano-N-(2-((1r,4r)-4-(4-(1-(4-((R)-2,6-dioxopiperidin-3-yl)-3,5-dimethylphenyl)piperidin-4-yl)piperazin-1-yl)cyclohexyl)-6-(2-hydroxypropan-2-yl)-2H-indazol-5-yl)pyrrolo[1,2-b]pyridazine-7-carboxamide] | 98 | 1.3 | 19 | 98 | – | – | – | –
4 | CC(C)(O)c1cc2nn([C@H]3CC[C@H](N4CCN(C(=O)C5CN(c6cnc(C7CCC(=O)NC7=O)c(F)c6)C5)CC4)CC3)cc2cc1NC(=O)c1ccc2cc(C#N)cnn12 (some centres unmarked) [Example 187, 3-cyano-N-(2-((1r,4r)-4-(4-(1-(6-(2,6-dioxopiperidin-3-yl)-5-fluoropyridin-3-yl)azetidine-3-carbonyl)piperazin-1-yl)cyclohexyl)-6-(2-hydroxypropan-2-yl)-2H-indazol-5-yl)pyrrolo[1,2-b]pyridazine-7-carboxamide] | 96 | 0.6 | 11 | 98 | – | – | – | –
5 | Cc1nc(C2CCC(=O)NC2=O)ccc1N1CC(N2CCN(C3CCC(n4cc5cc(NC(=O)c6ccc7cc(C#N)cnn67)c(C(C)(C)O)cc5n4)CC3)CC2)C1 (centres unmarked) [Example 426, 3-cyano-N-(2-((1r,4r)-4-(4-(1-(6-(2,6-dioxopiperidin-3-yl)-2-methylpyridin-3-yl)azetidin-3-yl)piperazin-1-yl)cyclohexyl)-6-(2-hydroxypropan-2-yl)-2H-indazol-5-yl)pyrrolo[1,2-b]pyridazine-7-carboxamide] | – | 5.5 | 12 | – | – | – | 95 | 95
6 | CC(C)(O)c1cc2nn([C@H]3CC[C@H](N4CCN(CC5CN(c6cc(F)c(N7CCC(=O)NC7=O)c(F)c6)C5)CC4)CC3)cc2cc1NC(=O)c1ccc2cc(C#N)cnn12 [Example 108, 3-cyano-N-(2-((1r,4r)-4-(4-((1-(4-(2,4-dioxotetrahydropyrimidin-1(2H)-yl)-3,5-difluorophenyl)azetidin-3-yl)methyl)piperazin-1-yl)cyclohexyl)-6-(2-hydroxypropan-2-yl)-2H-indazol-5-yl)pyrrolo[1,2-b]pyridazine-7-carboxamide] | 97 | 3.9 | 28 | 94 | – | – | – | –
7 | CC(C)(O)c1cc2nn([C@H]3CC[C@H](N4CCN(CC5CN(c6cc(F)c([C@H]7CCC(=O)NC7=O)c(F)c6)C5)CC4)CC3)cc2cc1NC(=O)c1ccc2n1NCC(C#N)=C2 [Example 397, 3-cyano-N-(2-((1r,4r)-4-(4-((1-(4-((R)-2,6-dioxopiperidin-3-yl)-3,5-difluorophenyl)azetidin-3-yl)methyl)piperazin-1-yl)cyclohexyl)-6-(2-hydroxypropan-2-yl)-2H-indazol-5-yl)-1,2-dihydropyrrolo[1,2-b]pyridazine-7-carboxamide] | – | 1.7 | 12 | – | – | – | 95 | 96
8 | CC(C)(O)c1cc2nn([C@H]3CC[C@H](N4CCN(CC5CN(c6cc(F)c([C@H]7CCC(=O)NC7=O)c(F)c6)C5)CC4)CC3)cc2cc1NC(=O)c1coc2cccnc12 [Example 403, N-(2-((1r,4r)-4-(4-((1-(4-((R)-2,6-dioxopiperidin-3-yl)-3,5-difluorophenyl)azetidin-3-yl)methyl)piperazin-1-yl)cyclohexyl)-6-(2-hydroxypropan-2-yl)-2H-indazol-5-yl)furo[3,2-b]pyridine-3-carboxamide] | 96 | 0.7 | 3.5 | 99 | – | – | – | –
9 | C[C@H]1CN([C@H]2CC[C@H](n3cc4cc(NC(=O)c5ccc6cc(C#N)cnn56)c(C(C)(C)O)cc4n3)CC2)CCN1C(=O)C1CN(c2cc(F)c(N3CCC(=O)NC3=O)c(F)c2)C1 [Example 312, 3-cyano-N-(2-((1S,4r)-4-((S)-4-(1-(4-(2,4-dioxotetrahydropyrimidin-1(2H)-yl)-3,5-difluorophenyl)azetidine-3-carbonyl)-3-methylpiperazin-1-yl)cyclohexyl)-6-(2-hydroxypropan-2-yl)-2H-indazol-5-yl)pyrrolo[1,2-b]pyridazine-7-carboxamide] | 97 | 2.4 | 34 | 99 | – | – | – | –
10 | CC(C)(O)c1cc2nn([C@H]3CC[C@H](CN4CCN(C5CCN(c6ccc7c(c6)C(=O)N(C6CCC(=O)NC6=O)C7=O)CC5)CC4)CC3)cc2cc1NC(=O)c1ccc2cc(C#N)cnn12 (some centres unmarked) [Example 436, 3-cyano-N-(2-((1r,4r)-4-((4-(1-(2-(2,6-dioxopiperidin-3-yl)-1,3-dioxoisoindolin-5-yl)piperidin-4-yl)piperazin-1-yl)methyl)cyclohexyl)-6-(2-hydroxypropan-2-yl)-2H-indazol-5-yl)pyrrolo[1,2-b]pyridazine-7-carboxamide] | 96 | 10.8 | 14 | 85 | – | – | – | –
11 | CC(C)(O)c1cc2nn([C@H]3CC[C@H](N4CCN(C(=O)C5CCN(c6ccc7c(c6)C(=O)N(C6CCC(=O)NC6=O)C7=O)CC5)CC4)CC3)cc2cc1NC(=O)c1ccc2cc(C#N)cnn12 (some centres unmarked) [Example 429, 3-cyano-N-(2-((1r,4r)-4-(4-(1-(2-(2,6-dioxopiperidin-3-yl)-1,3-dioxoisoindolin-5-yl)piperidine-4-carbonyl)piperazin-1-yl)cyclohexyl)-6-(2-hydroxypropan-2-yl)-2H-indazol-5-yl)pyrrolo[1,2-b]pyridazine-7-carboxamide] | 97 | 1 | 32 | 94 | – | – | – | –
12 | N#Cc1cnn2c(C(=O)Nc3cc4cn([C@H]5CC[C@H](N6CCN(C(=O)C7CN(c8cc(F)c([C@H]9CCC(=O)NC9=O)c(F)c8)C7)CC6)CC5)nc4c4c3OCO4)ccc2c1 [Example 355] | 95 | 0.4 | 75 | 73 | – | – | – | –
